Columns and labels:
naïve rats = test: Cardiovascular hemodynamic parameters in naive rats after IV bolus; format: in vivo, rat
Method: As the first step in testing the beneficial in vivo efficacy of the propargylamine derivatives on the cardiac function, we measured key cardiovascular hemodynamic parameters in control naïve rats, and in rats administered IV with a bolus of 1 mg/kg S(−)—N-propargyl-1-aminoindan, followed with a bolus of 10 mg/kg S(−)—N-propargyl-1-aminoindan (Sprague Dawley rats were used, n=3 rats in each group). Measurements were made at baseline, 30 minutes after each drug administration, and 1 hour (recovery) after drug administration.

CHF rats = test: Echocardiography in volume overload-induced CHF rats (AVF); format: in vivo, rat; conditions: 7.5 mg/kg/day orally, 21 days from 7 days prior to surgery; for Reduction in fractional shortening: day 21 (14 days post-surgery)
Method: (§1) (v) Animals. Studies were conducted on male Sprague Dawley rats (Harlan Laboratories Ltd., Jerusalem, Israel), weighing ˜300 g. The animals were kept in a temperature-controlled room and maintained on standard rat diet (0.5% NaCl). All experiments were performed according to the guidelines of the Technion Committee for Supervision of Animal Experiments (Haifa, Israel). […] Sham-operated rats served as controls. Drugs (or saline as control) were orally administered, starting 7 days prior to surgery (day 0) and were continued for 21 days. Surgery was performed on day 7 and animals sacrified 14 days post-surgery (day 21). Cardiac function was determined by echocardiography on days 0, 10 (3 days post-surgery) and 21 (before sacrifice). After the last echocardiography measurement, rats were sacrified and hearts were analyzed.
Rats were treated as described in Materials and Methods hereinabove and volume overload was induced by surgical creation of an aortocaval fistula (AVF). Drugs (7.5 mg/kg/day) were administered according to the protocol described above, starting 7 days prior to surgery (day 0) and during 21 days. Cardiac function was determined by echocardiography, from which two principle parameters, namely, diastolic area and systolic area, were calculated. These parameters were used for calculating the fractional shortening, which is an established measure of the ventricular contraction capacity, according to the equation: Fractional shortening =(diastolic area-systolic area)/diastolic area.

[1] = tested on: caspase-3 and cytochrome C in CHF rats; test: Caspase-3 and cytosolic cytochrome C in volume overload-induced CHF rats (AVF); format: in vivo, rat
Method: as §1
Rats were treated as described in Materials and Methods hereinabove and volume overload was induced by surgical creation of an aortocaval fistula (AVF). Sham-operated rats served as controls. 14 days after induction of volume-overload, caspase-3 cleavage and cytosolic cytochrome C, both pro-apoptotic proteins, were analyzed.
In the following experiment we tested whether propargylamine or S(−)—N-propargyl-1-aminoindan can reduce CHF-induced increase in caspase-3 and cytochrome C. Rats were treated and drugs were administered (1 or 7.5 mg/kg/day S(−)—N-propargyl-1-aminoindan, or 5 mg/kg/day propargylamine) as described in Materials and Methods hereinabove.

[2] = tested on: neonatal rat ventricular myocytes; test: Fas-mediated hypertrophy in cultured neonatal rat ventricular myocytes (ANP mRNA, RT-PCR); format: cell-based; conditions: rFasL 24 hours; for ANP mRNA elevation induced by Fas activation: 10 μM, 3 experiments per drug
Method: In order to test whether rasagiline can prevent the marked hypertrophy induced in cultured neonatal rat ventricular myocytes (for methods, see Yaniv et al., 2002), Fas was activated for 24 hours by incubation with rFasL (10 ng/ml plus 1 μg/ml of the enhancer antibody). Hypertrophy was assessed by determining the mRNA levels (by means of RT-PCR) of the atrial natriuretic peptide (ANP), which is a most common molecular marker of hypertrophy. Rasagiline ([…]) was added to the culture 1 hour before Fas activation and remained in the medium throughout the 24 hours exposure to rFasL.
In order to test whether S(−)—N-propargyl-1-aminoindan and propargylamine have the same effect on marked hypertrophy induced in cultured neonatal rat ventricular myocytes, similar experiments were performed using either propargylamin or S(−)—N-propargyl-1-aminoindan (both at a concentration of 10 μM) instead of rasagiline.

H9c2 cells [3] = test: Serum starvation-induced apoptosis in H9c2 cells, MTT staining assay; format: cell-based, rat; conditions: 0.1-10 μM; 0% FCS for 24 hours
Method: (§2) (b) Serum starvation—To induce apoptosis, H9c2 cultures were incubated in the culture medium containing 0% FCS for the indicated times.

[4] = tested on: Bax, Bcl-2, PKC-ε in hearts of naïve rats; test: Anti-apoptotic and pro-apoptotic proteins in hearts of naive rats; format: in vivo, rat; conditions: 5 mg/kg/day orally for 21 days
Method: In this experiment we tested the effects of propargylamine and S(−)—N-propargyl-1-aminoindan on several key anti-apoptotic and pro-apoptotic proteins in hearts of naïve rats.
The drugs (5 mg/kg/day) were orally administered to rats for 21 days (n=4-6 rats in each group), and measurements were made after sacrifice. […] Furthermore, both propargylamine and S(−)—N-propargyl-1-aminoindan increased the expression of the key anti-apoptotic PKC-ε (FIGS. 9D-9E, respectively).

H9c2 cells [5] = test: Fas-mediated (rFasL) apoptosis in H9c2 cells, DAPI staining; format: cell-based, rat; conditions: added 16 hours before and present throughout
Method: (§3) (ii) Cell Line H9c2. Experiments were performed on the embryonic rat heart cell line H9c2. H9c2 cells were cultured in DMEM (Biological Industries, Beit-Haemek, Israel) supplemented with 10% fetal calf serum (FCS), 50 units/ml penicillin G, 50 μg/ml streptomycin sulfate, 2 mg/ml L-glutamine and sodium pyruvate. H9c2 cells were harvested by trypsinization, washed with PBS, diluted to a concentration of 5×10^4 cells/ml with DMEM (high glucose) and cultured at 0.5 ml/well on sterile glass cover slips in 24-well plates.
(c) Activation of the Fas receptor—Fas activation was induced by incubating the cultures with recombinant human Fas Ligand (rFasL; 10 ng/ml) plus the enhancing antibody (1 μg/ml) for the indicated times, according to the manufacturer's recommendations (Alexis Biochemicals, San Diego, Calif.).
(§4) (iv) Determination of Apoptosis by DAPI. Cultures were counterstained with 4′, 6-diamidino-2-phenylindole (DAPI) to visualize the nuclear morphology.
Cultures of embryonic rat heart cell line H9c2 were incubated with rFasL (10 ng/ml) and an enhancing antibody for periods of time of 9, 10 and 24 hours, and apoptosis measured thereafter.
In order to determine whether rasagiline can prevent Fas-mediated apoptosis, the Fas receptor was activated for 9, 10 and 24 hours as described above. Rasagiline (10 μM) was introduced to the culture medium 16 hours before, and was present throughout the apoptosis-inducing protocol (n=3 wells).
Each one of the drugs, at a concentration of either 0.1 or 1.0 μM was introduced to the culture medium 16 hours before, and was presented throughout the apoptosis-inducing protocol (n=3 wells).

[6] = tested on: neonatal rat ventricular myocytes; test: Doxorubicin-induced apoptosis in neonatal rat ventricular myocytes (caspase-3 cleavage); format: cell-based; conditions: 1 or 10 μM, added 24 hours before; 1 μM doxorubicin 24 hours
Method: In order to test whether propargylamine or S(−)—N-propargyl-1-aminoindan can prevent doxorubicin-induced apoptosis in cultured neonatal rat ventricular myocytes, these drugs (at a concentration of either 1 or 10 μM) were introduced to the culture medium 24 hours before the incubation (24 hours) with 1 μM doxorubicin.

[7] = tested on: neonatal rat ventricular myocytes; test: Serum starvation-induced apoptosis in neonatal rat ventricular myocytes (caspase-3 cleavage, Bcl-2); format: cell-based; conditions: 0.1 μM, added 1 hour before; 0% FCS, 24 hours
Method: Caspase-3 is a protein of the cysteine-aspartic acid protease (caspase) family, known as a key pro-apoptotic protein and therefore as a common marker of apoptosis.
In order to test whether propargylamine can prevent serum starvation-induced apoptosis in cultured neonatal rat ventricular myocytes, we repeated the serum starvation protocol and 0.1 μM propargylamine was introduced to the culture medium 1 hour before serum starvation. As shown in FIGS. 6B-6C, propargylamine attenuated serum starvation-induced apoptosis in neonatal rat ventricular myocytes as indicated both by the drug-induced decrease in caspase 3 cleavage (FIG. 6B) and increase in the expression of mitochondrial Bcl-2, known as an anti-apoptotic protein (FIG. 6C).

H9c2 cells [8] = test: Serum starvation-induced apoptosis in H9c2 cells, DAPI staining; format: cell-based, rat
Method: as §3, §2, §4
The next apoptosis-inducing stimulus tested was serum starvation ([…], 0% serum in the culture medium). To induce apoptosis, H9c2 cells were incubated in the culture medium containing 0% FCS for 6, 7, 8 or 9 hours. Rasagiline (10 μM) was introduced to the culture medium 2 hours before inducing serum starvation and was present throughout the apoptosis-inducing protocol (n=3 wells).
In another experiment, we repeated the serum starvation protocol, and also tested in the same cultures whether rasagiline can protect against H2O2-induced apoptosis. Rasagiline was introduced to the culture medium 2 hours before inducing serum starvation or adding H2O2, and was present throughout the apoptosis-inducing protocol (n=4 experiments; ˜2000 cells counted).

[9] = 10 mg/kg IV bolus, 30 minutes after administration
[10] = 0.1 or 1.0 μM, ~10 hours incubation with rFasL (~10% apoptosis)

SMILES: C#CCN[C@H]1CCc2ccccc21 [S(−)—N-propargyl-1-aminoindan]
- Cardiac index (naïve rats; [9]): markedly increased
- Cardiac output (naïve rats; [9]): markedly increased
- Heart rate (naïve rats; [9]): did not affect
- Mean arterial pressure (MAP) (naïve rats; [9]): did not affect
- Reversibility of the effect on cardiac function (naïve rats; washout period (recovery, 1 hour after administration)): reversible
- Reduction in fractional shortening (CHF rats): completely prevented
- Hypertrophic increase in the diastolic area (CHF rats; days 10 and 21): completely prevented
- Hypertrophic increase in the systolic area (CHF rats; days 10 and 21): completely prevented
- CHF-induced increase in cytochrome C ([1]; 1 mg/kg/day orally for 21 days (FIG. 11B)): significantly reduced
- CHF-induced increase in caspase-3 ([1]; 7.5 mg/kg/day orally for 21 days (FIG. 11A)): significantly reduced
- ANP mRNA elevation induced by Fas activation [2]: completely blocked
- Anti-apoptotic effect, serum starvation, MTT staining (H9c2 cells [3]): anti-apoptotic effect
- Expression of anti-apoptotic PKC-ε [4]: increased
- Fas-mediated apoptosis (H9c2 cells [5]; [10]): completely prevented
- Doxorubicin-induced apoptosis (caspase-3 cleavage) [6]: significantly attenuated

SMILES: C#CCN [propargylamine]
- Hypertrophic increase in the diastolic area (CHF rats; 14 days post-surgery): completely prevented
- Hypertrophic increase in the systolic area (CHF rats; 14 days post-surgery): completely prevented
- Reduction in fractional shortening (CHF rats): completely prevented
- CHF-induced increase in caspase-3 ([1]; 5 mg/kg/day orally for 21 days): significantly reduced
- CHF-induced increase in cytochrome C ([1]; 5 mg/kg/day orally for 21 days (FIG. 11B)): significantly reduced
- ANP mRNA elevation induced by Fas activation [2]: completely blocked
- Expression of anti-apoptotic PKC-ε [4]: increased
- Expression of mitochondrial anti-apoptotic protein Bcl-2 [4]: markedly increased
- Expression of mitochondrial pro-apoptotic protein Bax [4]: did not affect
- Ratio Bcl-2/Bax [4]: marked increase
- Fas-mediated apoptosis (H9c2 cells [5]; [10]): completely prevented
- Doxorubicin-induced apoptosis (caspase-3 cleavage) [6]: significantly attenuated
- Caspase 3 cleavage, serum starvation [7]: decrease
- Expression of mitochondrial Bcl-2, serum starvation [7]: increase

SMILES: C#CCN[C@@H]1CCc2ccccc21 [rasagiline, R(+)—N-propargyl-1-aminoindan]
- Serum starvation-induced apoptosis (H9c2 cells [8]; 10 μM, added 2 hours before, 9 hrs serum starvation (12% apoptosis)): completely prevented
- Anti-apoptotic effect, serum starvation (H9c2 cells [8]; 0.1-10 μM, added 2 hours before, 0% FCS for 24 hours): anti-apoptotic effect
- Apoptosis induced by serum starvation (H9c2 cells [8]; Example 3, added 2 hours before, n=4 experiments): prevented
- Fas-mediated hypertrophy (ANP mRNA) ([2]; 10 μM/ml, added 1 hour before, preliminary, data not shown): prevented Fas-mediated hypertrophy
- Fas-mediated apoptosis (H9c2 cells [5]; 10 μM, 10 hours incubation with rFasL (~20% apoptosis)): completely prevented

Reference: patent US8097608B2, “Methods for treatment of cardiovascular disorders and diseases” (Technion Research and Development Foundation Ltd., priority 2003, dated 2012)
